According to US20250109120A1, “INDOLINE DERIVATIVES FOR TREATMENT AND/OR PREVENTION OF TUMOR OR CELL PROLIFERATIVE AND FIBROSIS DISEASES” (NATIONAL TAIWAN UNIVERSITY, priority 2023, published 2025):

Columns and labels:
DU145 cells = experiment: TGF-β/Smad/RNA polymerase II signaling, western blot, fractionation, immunoprecipitation; type: cell-based, human; settings: 10 μM
Description: Whole-cell lysates were subjected to western blotting with the indicated antibodies. […] The proteins in the cytosol and nucleus were detected by western blotting analysis, and the proteins expression in the nucleus were quantified. […] The results are shown as the mean±SEM from at least three independent experiments (*p<0.05, **p<0.01, and ***p<0.001 vs. control group; #p<0.05, ##p<0.01, and ###p<0.001 vs. TGF-β1 treatment group; § p<0.05, §§ p<0.01 vs. indicated group).
(§1) The cells were incubated in lysis buffer for 10 min at 4° C., scraped off, incubated on ice for an additional 10 min and then centrifuged at 17,000 g for 30 min at 4° C. Protein samples were electrophoresed on SDS-PAGE gels, transferred to PVDF membranes and blocked with 5% fat-free milk in PBS for 30 min at room temperature. Immunoblotting was performed overnight with primary antibodies in PBS at 4° C., followed by incubation with HRP-conjugated secondary antibodies for 1 h at room temperature. Bound antibodies will be measured using an ECL reagent and exposed to a photographic film. In the immunoprecipitation assay, cell lysates were immunoprecipitated with 1 μg of antibody and A/G agarose beads overnight at 4° C. After washing the precipitated beads three times with 1 mL ice-cold cell lysis buffer, bound immune complexes were separated by 10% SDS-PAGE and analyzed with immunoblotting.

[1] = test system: CDH1 reporter in DU145 cells; experiment: 7TFP CDH1 reporter luciferase assay; type: cell-based, human; settings: TGF-β1 10 ng/mL, 24 h
A549 cells [2] = experiment: Wound-healing migration assay; type: cell-based, human; settings: compounds 2 μM, senexin A 5 μM, pirfenidone 1 mM; TGF-β1 10 ng/mL; 24 or 48 h
Description: A549 cells were incubated in six-well plates until reaching 90% confluency, scratched with a pipette tip, and immediately photographed (0 h). Cells were incubated with or without compound k (2 μM), senexin A (5 μM), or pirfenidone (1 mM) for 1 h, then treated with TGF-β1 (10 ng/mL) and allowed to migrate into the wound area for 24 or 48 h, and photographed. Cell migration into the wound was quantified using ImageJ software; the solid line indicates time zero. Quantitative assessment of the mean number of cells in the denuded zone is expressed as the mean±SEM from three independent experiments. **p<0.01 compared to the control group; ##p<0.01 and ###p<0.001 compared to TGF-β1-treated group.
Cells were seeded in six-well plates and cultured to 90% confluency, at which time the cellular monolayer was wounded with a sterile 10-μL pipette tip and washed with culture medium to remove detached cells. Cells were incubated in the presence or absence of test compounds for 24 h and photographed. The wound closure percentages were subsequently determined using ImageJ software (National Institutes of Health, USA).

A549 cells [3] = experiment: TGF-β1-induced oxidative stress (MDA, Nox4); type: cell-based, human; settings: compounds 2 μM, TGF-β1 10 ng/ml 24 h
Description: A549 cells were incubated with compounds k, b, a (2 μM), senexin A (5 μM), or pirfenidone (1 mM) for 1 h, followed by treatment with 10 ng/ml TGF-β1 for a further 24 h. Malondialdehyde (MDA) (FIG. 10A) and Nox4 (FIG. 10B) levels were detected. ***p<0.001 compared to the control group; #p<0.05, ##p<0.01, and ###p<0.001 compared to the TGF-β1-treated group.
An end product of lipid peroxidation, malondialdehyde (MDA), was measured by spectrophotometry at a wavelength of 532 nm using malondialdehyde bis(dimethyl acetal) as the standard as per the assay protocol (Cell Biolabs, USA).

A549 cells [4] = experiment: TGF-β1-induced EMT protein expression, western blot; type: cell-based, human; settings: test compounds 2 μM, senexin A 5 μM, pirfenidone 1 mM; TGF-β1 10 ng/mL
Description: FIGS. 4A-4B show the inhibition of epithelial-to-mesenchymal transition protein expressions by CDK8 inhibitors in human alveolar epithelial cells. […] Cell lysates were subjected to a Western blot analysis using the indicated antibodies. Results are shown as the mean t SEM from three independent experiments. *p<0.05, and ***p<0.001 compared to the control group; #p<0.05, ##p<0.01, and ###p<0.001 compared to the TGF-β1-treated group. […] Cell viabilities were determined by an MTT assay. Results are shown as the mean t SEM of three independent experiments.
Cells (106) were incubated for 10 min at 4° C. in lysis buffer (20 mM HEPES at pH 7.4, 2 mM EGTA, 50 mM β-glycerophosphate, 0.1% Triton X-100, 10% glycerol, 1 mM DTT, 1 μg/mL of leupeptin, 5 μg/mL of aprotinin, 1 mM phenylmethylsulfonyl fluoride, and 1 mM sodium orthovanadate), scraped off, incubated on ice for an additional 10 min, and centrifuged at 17,000 g for 30 min at 4° C. Protein samples (20 μg) were then electrophoresed on SDS-polyacrylamide gel electrophoresis (PAGE) gels and transferred to a nitrocellulose membrane, which was then blocked by incubation for 30 min at room temperature with 5% bovine serum albumin (BSA) in Tris-buffered saline with 0.1% Tween-20 (TBST). Immunoblotting was performed by overnight incubation at 4° C. with primary antibodies in TBST, followed by incubation for 1 h at room temperature with horseradish peroxidase (HRP)-conjugated secondary antibodies. Bound antibodies were measured using enhanced chemiluminescence (ECL) reagent (GE Healthcare, UK) and exposed to photographic film.

PC-3 cells = experiment: PC-3 SCID mouse model; type: in vivo, mice; settings: oral, 50 mg/kg q.d., 31 days
Description: PC-3 cells (1×10^7 cells) were injected subcutaneously into the flanks of 7-week-old male SCID mice and treated with vehicle or compound k (50 mg/kg) q.d. for 31 days. […] Tumors were excised from each mouse after a 31-day treatment. […] The length is represented by the scale bar as indicated.
as §1
Tissue sections underwent dewaxing and rehydration. Antigen retrieval was performed by autoclaving the slides in Trilogy solution (Cell Marque, Hot Springs, AR) at 121° C. for 10 min. The slides were blocked with 3% H2O2 and 5% fetal bovine serum, incubated with primary antibodies at 4° C. overnight, and then treated with polymer-HRP reagent (Dako Cytomation, Glostrup, Denmark). activity Peroxidase was visualized using diamino-benzidine tetrahydrochloride solution (DAKO), and sections were counterstained with hematoxylin. Dark brown nuclear staining was defined as positive, no staining was defined as negative.

How did the “binding of CDK8 to RNA polymerase II (Ser2/5), Smad3 and Pin1 (immunoprecipitation)” value (DU145 cells; TGF-β1 10 ng/mL) turn out when `CNC(=O)c1cc(Oc2ccc(NS(=O)(=O)c3ccc4c(c3)C(=C(C)C)C(=O)N4)c(F)c2)ccn1` [Compound k, 4-(3-Fluoro-4-((2-oxo-3-(propan-2-ylidene)indoline)-5-sulfonamido)phenoxy)-N-methylpicolinamide] was run?
The value was “inhibited”.

What about the “phosphorylation of Smad3 and RNA polymerase II in nuclear fraction” value (DU145 cells; TGF-β1 10 ng/mL 1 h) of the same compound?
The value was “markedly suppressed”.

What about the “expression of mesenchymal markers (N-cadherin, Snail)” value (DU145 cells; TGF-β1 10 ng/mL 24 h) of the same compound?
The value was “significantly downregulated”.

What about the “CDH1-driven luciferase expression reduced by TGF-β1” value [1] of the same compound?
The value was “reversed this effect to the control level”.

What about the “inhibition of cell migration” value (A549 cells [2]) of the same compound?
The value was “potent inhibition”.

What about the “TGF-β1-caused oxidative stress (MDA and Nox4 levels)” value (A549 cells [3]) of the same compound?
Its value is “markedly reduced”.

What about the “TGF-β1-triggered EMT protein expressions” value (A549 cells [4]) of the same compound?
Its value is “significant inhibition”.

What about the “binding of CDK8 and p-Smad3 (Thr179), tumor immunoprecipitation” value (PC-3 cells) of the same compound?
Its value is “markedly inhibited”.

And the body weight changes (PC-3 cells)?
The body weight changes was “no apparent body weight changes”.

And the “expression of EMT proteins, α-SMA, p-Smad3 (Thr179), active β-catenin, p-STAT1 Ser727 in tumor immunoblots” value (PC-3 cells)?
Its value is “markedly inhibited”.

What about the “interaction of CDK8 and MED12, tumor immunoprecipitation” value (PC-3 cells) of the same compound?
Its value is “did not affect”.

What about the “tumor margin, H&E staining” value (PC-3 cells) of the same compound?
Its value is “distinct boundary”.

And the “vimentin, N-cadherin and Snail levels, IHC staining of tumors” value (PC-3 cells)?
Its value is “significantly decreased”.
